Source: US8957093B2, “N-biphenylmethylindole modulators of PPARG” (The Scripps Research Institute, priority 2011, dated 2015)
Where two headings read alike, the source gives them in different places.

Columns and labels:
[1] = target: Gal-4-PPAR (human PPAR LBD fused to GAL4 DNA-binding domain) (Homo sapiens (Human), UniProt P37231); experiment: GAL4-PPARG LBD / UAS-luciferase transactivation assay in HEK 293T cells; type: cell-based
GST-PPARG-LBD = GST-PPARG-LBD (Homo sapiens (Human), UniProt P37231); experiment: Lanthascreen PPARG competitive binding assay (Invitrogen, TR-FRET); conditions: Lanthascreen competitive binding; NA = not active; inc = incomplete curve; read-out: IC50 (nM) Lantha
GST-PPARG-LBD, sequence (P37231 238-503): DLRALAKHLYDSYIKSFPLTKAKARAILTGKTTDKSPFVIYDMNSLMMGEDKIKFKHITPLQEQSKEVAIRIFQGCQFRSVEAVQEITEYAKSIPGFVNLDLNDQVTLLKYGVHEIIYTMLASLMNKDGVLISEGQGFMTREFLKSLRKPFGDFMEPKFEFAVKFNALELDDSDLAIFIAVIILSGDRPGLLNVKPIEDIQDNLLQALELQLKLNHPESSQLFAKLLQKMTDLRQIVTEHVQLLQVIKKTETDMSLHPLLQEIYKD
Method in brief: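 TR-FRET competitive binding of GST-PPARG-LBD with 5 nM Tb-GST-antibody and 5 nM Fluormone Pan-PPAR Green tracer, in TR-FRET buffer C. Compound serially diluted from 10 μM, 2 h dark incubation, in triplicate. Readout is 520/490 nm emission ratio (340 nm excitation), expressed as fold change over 2% DMSO control.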

[2] = GAL4 transactivation, HEK 293T cells; NA = not active; read-out: EC50 (nM) GAL4
[3] = HEK-293T, 18 h; read-out: % transactivation at 10 μM (GAL4)
[4] = HEK-293T, 18 h, read-out: % transactivation at 10 μM (GAL4)

Gal-4-PPAR (human PPAR LBD fused to GAL4 DNA-binding domain), sequence (P37231 238-503): as above

SMILES	EC50 [1, 2]	activation at 10 µM [1, 3]	IC50 (GST-PPARG-LBD)	activation at 10 µM [1, 4]	EC50 [1]
Cc1c(C)n(Cc2ccc(-c3ccccc3C(=O)O)cc2)c2ccc(C(=O)N[C@H](C)c3ccc(C(F)(F)F)c(F)c3)cc12 [Example 234, (R)-4′-((5-((1-(3-fluoro-4-(trifluoromethyl)phenyl)ethyl)carbamoyl)-2,3-dimethyl-1H-indol-1-yl)methyl)-[1,1′-biphenyl]-2-carboxylic acid]	40 nM	50%	< 1 nM	–	–
Cc1c(C)n(Cc2ccc(-c3ccccc3C(=O)O)cc2)c2ccc(C(=O)N[C@H](C)c3c(F)ccc(F)c3F)cc12 [Example 235, (R)-4′-((2,3-dimethyl-5-((1-(2,3,6-trifluorophenyl)ethyl)carbamoyl)-1H-indol-1-yl)methyl)-[1,1′-biphenyl]-2-carboxylic acid]	37 nM	–	3 nM	30%	–
Cc1c(C)n(Cc2ccc(-c3ccccc3C(=O)O)cc2)c2ccc(C(=O)N[C@@H](C)c3c(F)ccc(F)c3F)cc12 [Example 236, (S)-4′-((2,3-dimethyl-5-((1-(2,3,6-trifluorophenyl)ethyl)carbamoyl)-1H-indol-1-yl)methyl)-[1,1′-biphenyl]-2-carboxylic acid]	293 nM	–	17 nM	20%	–
Cc1c(C)n(Cc2ccc(-c3ccccc3C(=O)O)cc2)c2ccc(C(=O)N[C@@H](C)[C@@H]3CCCN3C(=O)OCc3ccccc3)cc12 [Example 237, 4′-((5-(((S)-1-((S)-1-((benzyloxy)carbonyl)pyrrolidin-2-yl)ethyl)carbamoyl)-2,3-dimethyl-1H-indol-1-yl)methyl)-[1,1′-biphenyl]-2-carboxylic acid]	417 nM	30%	118 nM	–	–
Cc1c(C)n(Cc2ccc(-c3ccccc3C(=O)O)cc2)c2ccc(C(=O)N[C@@H](C)[C@H]3CCCN3C(=O)OCc3ccccc3)cc12 [Example 238, 4′-((5-(((S)-1-((R)-1-((benzyloxy)carbonyl)pyrrolidin-2-yl)ethyl)carbamoyl)-2,3-dimethyl-1H-indol-1-yl)methyl)-[1,1′-biphenyl]-2-carboxylic acid]	193 nM	55%	20 nM	–	–
Cc1c(C)n(Cc2ccc(-c3ccccc3C(=O)O)cc2)c2ccc(C(=O)N[C@H](C)c3cc(F)ccc3C(F)(F)F)cc12 [Example 239, (R)-4′-((5-((1-(5-fluoro-2-(trifluoromethyl)phenyl)ethyl)carbamoyl)-2,3-dimethyl-1H-indol-1-yl)methyl)-[1,1′-biphenyl]-2-carboxylic acid]	169 nM	–	17 nM	15%	–
Cc1c(C)n(Cc2ccc(-c3ccccc3C(=O)O)cc2)c2ccc(C(=O)N[C@@H](C)[C@@H]3CCN(C(=O)OCc4ccccc4)C3)cc12 [Example 240, 4′-((5-(((S)-1-((R)-1-((benzyloxy)carbonyl)pyrrolidin-3-yl)ethyl)carbamoyl)-2,3-dimethyl-1H-indol-1-yl)methyl)-[1,1′-biphenyl]-2-carboxylic acid]	1300 nM	25%	58 nM	–	–
Cc1c(C)n(Cc2ccc(-c3ccccc3C(=O)O)cc2)c2ccc(C(=O)N[C@@H](C)c3cc(F)ccc3C(F)(F)F)cc12 [Example 241, (S)-4′-((5-((1-(5-fluoro-2-(trifluoromethyl)phenyl)ethyl)carbamoyl)-2,3-dimethyl-1H-indol-1-yl)methyl)-[1,1′-biphenyl]-2-carboxylic acid]	453 nM	–	57 nM	20%	–
Cc1c(C)n(Cc2ccc(-c3ccccc3-c3nn[nH]n3)cc2)c2ccc(C(=O)N[C@@H](C)c3cccc(C(C)C)c3)cc12 [Example 243, (S)-1-((2′-(2H-tetrazol-5-yl)-[1,1′-biphenyl]-4-yl)methyl)-N-(1-(3-isopropylphenyl)ethyl)-2,3-dimethyl-1H-indole-5-carboxamide]	–	10%	22 nM	–	1600 nM
